In PMC6902048, “UGT85A84 Catalyzes the Glycosylation of Aromatic Monoterpenes in Osmanthus fragrans Lour. Flowers” (Frontiers in Plant Science, 2019):
Where “and” joins values, the source holds several entries; their conditions need not be identical. Equal values may be shown once. Each block holds one compound with its values, some of them ahead of it.

How the values were obtained:
UGT85A84 [1] = assay: OfUGT85A84 enzyme assay with purified recombinant protein (LC-MS, Michaelis-Menten fitting); format: biochemical, Osmanthus fragrans; settings: for Glycosylated products formed with the sugar donor (LC-MS): 0.5 mM sugar donor with 0.5 mM linalool or linalool oxide, 1 h or 16 h incubation at 37°C
Protocol: The full-length UGT85A84 ORF was amplified and cloned into the pET21b and pET15b expression vectors (Novagen) using the primers listed in Table S2 . The two plasmids were co-transformed into Escherichia. coli BL21 (DE3) pLysS cells (Promega, Madison, WI, USA). The co-transformed cells were cultured in lysogeny broth medium supplemented with 100 µg/ml ampicillin at 37°C until OD600 approached 1.0–1.2. The temperature was then shifted to 16°C, and the cells were incubated with 0.2 mM isopropyl β-D-1-thiogalactopyranoside for 16 h. Subsequently, the cells were harvested by centrifugation, resuspended in lysis buffer (pH 8.0) containing 25 mM Tris-HCl and 150 mM NaCl and lysed by a JN-02 homogenizer. […] The eluted protein was further purified by anion-exchange chromatography (Source 15Q 10/100, GE Healthcare) with a linear NaCl gradient in the buffer (pH 8.0) containing 25mM Tris-HCl, 1M NaCl, and 2mM dithiothreitol. Then, the elution peak was concentrated to 1 ml and subjected to size-exclusion chromatography (Superdex-200 Increase 10/300, GE Healthcare) in the buffer (pH 8.0) containing 25mM Tris-HCl, 150mM NaCl, and 5mM dithiothreitol (DTT). The purity of the protein was analyzed by sodium dodecyl sulfate polyacrylamide gel electrophoresis (SDS-PAGE) and the protein was quantified using a NanoDrop 2000 spectrophotometer (Thermo Scientific, USA). Enzymatic activity assays were carried out according to the description by [Shoji et al. (2015)] with modification. […] After incubation of the mixture at 37°C for 16 h, the reaction was terminated by the addition of 1 µl of 24% trichloroacetic acid (TCA). Except for the concentrations of substrates, the same assay conditions were used for measuring the UGT85A84 kinetic parameters. […] All the reactions were incubated at 37°C for 1 h and repeated in triplicate. The reaction products were subjected to LC-MS analysis. The apparent K m and k cat values for each aglycone and sugar donor were determined by Michaelis-Menten fitting in OriginPro 9.1 software. LC-MS analysis was performed in the Thermo Scientific™ UltiMate™ 3000RS system. The separation was conducted on a Thermo Scientific™ Syncronis C18 column (100*2.1 mm, 1.7µm) at 40°C. Mobile phases consisted of phase A referring to water with 0.1% formic acid and phase B referring to methanol with 0.1% formic acid. […] The samples were eluted with the following linear gradient: 0–1min, 2% B; 1–5min, 2-95% B; 5–7min, 95% B; 7–7.1, 95–2% B; 7.1–9, 2% B. The MS analysis was performed on a Thermo Scientific™ Q Exactive Plus hybrid quadrupole-Orbitrap benchtop high-resolution mass spectrometer equipped with heated electrospray ionization. […] Identification of target compounds was carried out using Data-Dependent Acquisition (DDA). The HCD collision energy was set at NCE 20 for negative mode and was set at NCE 30 50 80 for positive mode. Quantification was performed in the full scan negative mode.

CsGT1 = system: CsGT1; set-up: method as in Shoji et al., 2015; settings: geraniol = 100%; ref Shoji et al., 2015; cited from earlier work
[2] = system: UGTs from Actinidia deliciosa; set-up: method as in Yar-Khing et al., 2014; settings: Actinidia deliciosa UGT; ref Yar-Khing et al., 2014; cited from earlier work
UGTs from Vitis vinifera = system: UGTs from Vitis vinifera; set-up: method as in Friedericke et al., 2014a; Friedericke et al., 2014b; settings: several Vitis vinifera UGTs, enzymes not named, ref Friedericke et al., 2014a, 2014b; cited from earlier work
[3] = system: UGTs from Camellia sinensis; set-up: method as in Shoji et al., 2015; settings: enzymes not named, ref Shoji et al., 2015; cited from earlier work
UGT85A84 [4] = assay: Transient over-expression of OfUGTs in Nicotiana benthamiana leaves with aglycone infiltration, glycosides by GC-MS; format: in vivo, Osmanthus fragrans; settings: N. benthamiana leaves, 50 µM linalool and 200 µM linalool oxides infiltrated, 4 h; GC-MS after β-glucosidase
Protocol: Transient expression experiments with Nicotiana benthamiana leaves were performed as described by [Zeng et al. (2016)]. […] Five days after the inoculation, the leaves were infiltrated with different aglycone solutions (50 µM linalool and 200 µM linalool oxides in 0.5 M MES + 1 M MgCl2). Four hours after infiltration, the leaves were detached and frozen at –80°C for glycoside determination ([Yar-Khing et al., 2014]). Glycoside extraction coupled with GC-MS was performed to quantify the glycoside contents according to the previously described methods ([Zheng et al., 2017]).
The experiments of transient over-expression coupled with the substrate injection in N. benthamiana leaves were conducted to investigate the glycosides produced by candidate OfUGTs in planta. The leaves were infiltrated with Super1300-OfUGT or a control construct in the presence of linalool and its oxides. The glycosides were then extracted and purified after incubation. Subsequently, GC-MS analysis calculated the glycoside contents by quantifying the corresponding aglycones released from the glycosides.
The N. benthamiana leaves were infiltrated with a control construct (S1300-GUS) or S1300-OfUGTs in the presence of linalool and its oxides. […] Different letters indicate significant difference as determined by one-way ANOVA followed by LSD t-test (P 0.05).

PpUGT85A2 = system: PpUGT85A2; set-up: method as in Wu et al., 2018; settings: Prunus persica UGT; ref Wu et al., 2018; cited from earlier work
[5] = aglycone as varied substrate, fixed UDP-Glc 0.5 mM
[6] = aglycone as varied substrate, fixed UDP-Glc 0.5 mM, 37°C, 1 h

- Glycosylated products formed with the sugar donor (LC-MS) (UGT85A84 [1]): No products were detected
Structure (SMILES): C[C@@H]1O[C@H](OP(=O)(O)OP(=O)(O)OC[C@H]2O[C@@H](n3ccc(=O)[nH]c3=O)[C@H](O)[C@@H]2O)[C@H](O)[C@H](O)[C@H]1O [UDP-Rha, UDP-rhamnose]

Structure (SMILES): CC/C=C\CCO [(Z)-3-hexenol]
- Relative activity of CsGT1 towards substrate (CsGT1): 62%

Structure (SMILES): CCCCCCO [Hexanol]
- Km [2]: 117 ± 28.1 µM

Structure (SMILES): C=CC(C)(O)CC/C=C(\C)CO (stereo not drawn) [8-Hydroxylinalool]
- Km (UGTs from Vitis vinifera): 33 ± 1.8 µM

Structure (SMILES): CC(C)=CCC[C@H](C)CCO [S-Citronellol]
- Km (UGTs from Vitis vinifera): 55 ± 1.3 µM

Structure (SMILES): CCCCCC(O)CC (stereo not drawn) [Octan-3-ol]
- Km [2]: 66.6 ± 16.2 µM

Structure (SMILES): CC(C)=CCC/C(C)=C/CO [geraniol]
- Km [2]: 76.2 ± 11.1 µM
- Km [3]: 44.2 ± 3 µM
- Relative activity of CsGT1 towards substrate (CsGT1): 100%

Structure (SMILES): OCc1ccccc1 [benzyl alcohol]
- Relative activity of CsGT1 towards substrate (CsGT1): 48%

- Glycosylated products formed with the sugar donor (LC-MS) (UGT85A84 [1]): No products were detected
Structure (SMILES): O=c1ccn([C@@H]2O[C@H](COP(=O)(O)OP(=O)(O)O[C@H]3OC[C@@H](O)[C@H](O)[C@H]3O)[C@@H](O)[C@H]2O)c(=O)[nH]1 [UDP-Xyl, UDP-xylose]

- k cat/K m (UGT85A84 [1]; [5]): 718000 M⁻¹ s⁻¹
- k cat (UGT85A84 [1]; [6]): 0.09 S ^-1
- Km (UGT85A84 [1]; aglycone as varied substrate, fixed UDP-Glc 0.5 mM, 37°C, 1 h, mean and SEM, n = 3): 136 µM
Structure (SMILES): C=CC(C)(O)CCC=C(C)C (stereo not drawn) [linalool]
- Glycoside of the injected aglycone in UGT85A84-infiltrated leaves versus control (UGT85A84 [4]): no significant increase
- Km (PpUGT85A2): 463 ± 80 µM
- Relative activity of CsGT1 towards substrate (CsGT1): 1.4%

- k cat/K m (UGT85A84 [1]; [5]): 1.0494e+07 M⁻¹ s⁻¹
- k cat (UGT85A84 [1]; [6]): 2.12 S ^-1
Structure (SMILES): C=CC1(C)CCC(C(C)(C)O)O1 (stereo not drawn) [linalool oxide]
- Glycoside of the injected aglycone in UGT85A84-infiltrated leaves versus control (UGT85A84 [4]): remarkable increase

Structure (SMILES): CC(C)=CCCC(C)CCO (stereo not drawn) [Citronellol]
- Km (UGTs from Vitis vinifera): 433 µM and 306 µM and 445 µM

Structure (SMILES): CC(C)=CCC/C(C)=C/CO[C@@H]1O[C@H](CO)[C@@H](O)[C@H](O)[C@H]1O [Geranyl β-D-glucopyranoside]
- Km [3]: 78.1 ± 19.6 µM

Structure (SMILES): C=CCc1ccc(O)c(OC)c1 [eugenol]
- Relative activity of CsGT1 towards substrate (CsGT1): 84%

Structure (SMILES): OCCc1ccccc1 [2-PE, 2-phenylethanol]
- Relative activity of CsGT1 towards substrate (CsGT1): 9.2%
